In patent US11987642B2, “Bispecific HER2 and CD3 binding molecules” (MEMORIAL SLOAN KETTERING CANCER CENTER, priority 2014, dated 2024):

Tests used:
[1] = test system: trastuzumab-sensitive breast carcinoma cell line SKBR3; assay: Proliferation assay (WST-8), SKBR3; assay type: cell-based, human; details: SKBR3, 72 hours, 10 μg/mL antibody; lapatinib positive control
Experimental: (§1) Cell proliferation was determined using an ELISA plate reader and the WST-8 kit (Dojindo technologies) following the manufacturer's instructions and using the formula: % survival rate=(Sample-Background)/(Negative control-Background). Lapatinib (MSKCC pharmacy) was ground using a mortar and pestle and suspended in DMSO as previously described. To determine statistical significance, the results were analyzed using one-way ANOVA using Prism 6.0.
For cell proliferation assays, 5,000 tumor cells were plated using RPMI-1640 supplemented with 10% FBS in a 96 well plate for 36 hours before being treated with lapatinib or the antibodies at the specified concentrations. […] Lapatinib (Memorial Sloan Kettering Cancer Center pharmacy) was ground using a mortar and pestle and suspended in DMSO as previously described (Chen et al., 2012, Molecular cancer therapeutics 11:660-669). To determine statistical significance, the results were analyzed using one-way ANOVA using Prism 6.0.

[2] = test system: HeLa cervical carcinoma cells; assay: Proliferation assay (WST-8), HeLa; assay type: cell-based, human
Experimental: as §1

[3] = test system: HeLa cervical carcinoma cells; assay: T cell cytotoxicity assays, HeLa; assay type: cell-based, human; details: lapatinib pretreatment
Experimental: The ^51Cr release assay was performed with effector T cells cultured in vitro in the presence of anti-CD3 and anti-CD28 for about 14 days. All target tumor cells were harvested with 2 mM EDTA in PBS, labeled with ^51Cr (Amersham, Arlington Height, IL) at 100 μCi/106 cells at 37° C. for 1 h. 5000 target cells/well were mixed with 50,000 effector cells (E:T=10:1) and BsAb antibodies in 96-well polystyrene round-bottom plates (BD Biosciences) to a final volume of 250 μl/well. The plates were incubated at 37° C. for 4 h. The released ^51Cr in supernatant was counted in a γ-counter (Packed Instrument, Downers Grove, IL). Percentage of specific release was calculated using the formula: (experimental cpm−background cpm)/(total cpm−background cpm)×100%, where cpm represented counts per minute of ^51Cr released. […] EC50 was calculated using SigmaPlot software.

SCCHN cell line PCI-30 = assay: Proliferation assay (WST-8), PCI-30; assay type: cell-based, human
Experimental: as §1

U2OS osteosarcoma cells = assay: Proliferation assay (WST-8), U2OS; assay type: cell-based, human
Experimental: as §1

HER2-positive cells = assay: Blocking of HER2-BsAb redirected T cell cytotoxicity; assay type: cell-based, human; details: pre-incubation with blocking antibody
HCC1954 xenografts = assay: Subcutaneous HCC1954 xenograft with intravenous PBMC; assay type: in vivo, DKO mice
Experimental: Subcutaneous xenografts were created with 5×10^6 cells suspended in Matrigel (Corning Corp, Tewksbury MA) and implanted in the flank of DKO mice. Effector peripheral blood mononuclear cell (PBMC) cells were purified from buffy coats purchased from the New York Blood Center. Prior to every experimental procedure, PBMCs were analyzed for their percentage of CD3, CD4, CD8 and CD56 cells to ensure consistency. […] Tumor size was measured using (1) hand-held TM900 scanner (Pieira, Brussels, BE); (2) Calipers; or (3) bioluminescence. Bioluminescence imaging was conducted using the Xenogen In Vivo Imaging System (IVIS) 200 (Caliper LifeSciences). Briefly, mice were injected intravenously with 0.1 mL solution of D-luciferin (Gold Biotechnology; 30 mg/mL stock in PBS). Images were collected 1 to 2 minutes after injection using the following parameters: a 10- to 60-second exposure time, medium binning, and an 8 f/stop. Bioluminescence image analysis was performed using Living Image 2.6 (Caliper LifeSciences).
In two other separate experiments, subcutaneous HER2-positive breast carcinoma cell line HCC1954 was mixed with subcutaneous PBMCs.

Row | Compound | anti-proliferative effect [1] | sensitivity of cells in proliferation assay [2] | effect of pretreatment on sensitivity to HER2-BsAb mediated cytotoxicity [3] | sensitivity of cells in proliferation assay (SCCHN cell line PCI-30) | sensitivity of cells in proliferation assay (U2OS osteosarcoma cells) | effect of blocking on HER2-BsAb induced T cell cytotoxicity (HER2-positive cells) | tumor growth (HCC1954 xenografts)
1 | CS(=O)(=O)CCNCc1ccc(-c2ccc3ncnc(Nc4ccc(OCc5cccc(F)c5)c(Cl)c4)c3c2)o1 [lapatinib] | strongest inhibition of cell proliferation | pan-resistant | increased sensitivity | resistant | minimal sensitivity | – | –
2 | huOKT3: humanized OKT3 CD3-specific antibody | – | – | – | – | – | blocked the ability of HER2-BsAb to induce T cell cytotoxicity | only modest effects
3 | OKT3: CD3 specific blocking mAb | – | – | – | – | – | prevented HER2-BsAb T cell mediated cytotoxicity | –
4 | C#Cc1cccc(Nc2ncnc3cc(OCCOC)c(OCCOC)cc23)c1 [erlotinib] | – | pan-resistant | – | resistant | minimal sensitivity | – | –
5 | CCOc1cc2ncc(C#N)c(Nc3ccc(OCc4ccccn4)c(Cl)c3)c2cc1NC(=O)/C=C/CN(C)C [neratinib] | – | pan-resistant | – | resistant | minimal sensitivity | – | –
